Values after ≈ are worked out from the molar mass of the structure shown. Where two headings read alike, the source gives them in different places.
Columns and labels:
bacteria = conditions: in words; cited from earlier work
IL-1 β = assay: Inhibiting activity of the production of IL-1 (LPS-stimulated, PMA-differentiated THP-1 cells, ELISA); format: cell-based; conditions: Homo sapiens, read-out: IC50 (50% inhibitory concentration) of IL-1 production
Protocol: Inhibiting Activity of the production of IL-1
With respect to Compound (I) of the present invention, the inhibiting activity of production of IL-1 β derived from THP-1 cells (ATCC No. TIB 202) of a human monocyte was examined. The amount of IL-1 β was determined by the ELISA method.
The THP-1 cells were suspended in an RPMI 1640 culture solution comprising 10% inactivated fetal bovine serum at a concentration of 1×10^5 cells/ml. The suspension was charged in a 24-well plate at a volume of 1 ml/well. PMA (phorbol 12-myristate 13-acetate, made by Wako Pure Chemical Industries, Ltd.; final concentration 30 nM) was added thereto, and the mixture was cultured in a mixed gas of 5% CO2 and 95% air at 37° C. for 65 hours. The cells were differentiated in a macrophage form.
The cultivation plate was gently washed with a serum-free RPMI 1640 culture solution to remove the cells not adhered thereto, and the residue was cultured for 4 hours in a serum-free RPMI 1640 culture solution (1 ml/well) to which LPS (lipopolysaccharide, made by Difco Laboratories; a final concentration 25 μg/ml) and a compound to be tested were added simultaneously.
After the completion of the cultivation, the amount of IL-1 β which was released in the cultivated supernatant was determined using an IL-1 β determination kit (made by Amersham Corp.).
Percent inhibition of IL-1 production was calculated using the following equation to obtain IC50 (50% inhibitory concentration).
Percent inhibition of IL-1 production (%) =[(A-B)/(A-C)]×100
A: amount of IL-1 produced when only LPS is added
B: amount of IL-1 produced when LPS and the compound to be tested are added
C: amount of IL-1 when LPS is not added

[1] = test system: Staphylococcus aureus ATCC 6538P; assay: Antibacterial activity (MIC), agar dilution method; format: cell-based; conditions: ATCC6538P, pH 7.0
Protocol: (§1) Antibacterial activity was determined by an agar dilution method using a medium (pH 7.0) comprising 3 g/l bactotrypton (made by Difco Laboratories), 3 g/l meat extract, 1 g/l yeast extract, 1 g/l glucose and 16 g/l agar.

[2] = test system: Bacillus subtilis No. 10707; assay: Antibacterial activity (MIC), agar dilution method; format: cell-based; conditions: pH 7.0
Protocol: as §1

[3] = test system: Enterococcus faecium ATCC 10541; assay: Antibacterial activity (MIC), agar dilution method; format: cell-based; conditions: ATCC10541, pH 7.0
Protocol: as §1

[4] = IL-1 β release from THP-1 cells, LPS 25 μg/ml, 4 hours, serum-free RPMI 1640

MIC [1] [µg/mL] | MIC [2] [µg/mL] | MIC [3] [µg/mL] | Structure (SMILES) | antibacterial activity (bacteria) | also measured
 |  |  | O=C(/C=C/C=C/C1CCCCC1)NC1=CC(O)(/C=C/C=C/C=C/C(=O)NC2=C(O)CCC2=O)C2OC2C1=O (stereo not drawn) [Alisamycin] | known to exhibit antibacterial activity | 
 |  |  | CCCCC(C)/C=C(\C)C(=O)NC1=CC(O)(/C=C/C=C/C=C/C(=O)NC2=C(O)CCC2=O)C2OC2C1=O (stereo not drawn) [Manumycin B] | known to exhibit antibacterial activity | 
 |  |  | CCCC[C@@H](C)/C=C(C)/C=C(\C)C(=O)NC1=C[C@@](O)(/C=C/C=C/C=C/C(=O)NC2=C(O)CCC2=O)[C@@H]2O[C@@H]2C1=O [Manumycin A] | known to exhibit antibacterial activity | 
 |  |  | CC(C)C/C=C/C=C/C=C/C(=O)NC1=CC(O)(/C=C/C=C/C=C/C(=O)NC2=C(O)CCC2=O)C2OC2C1=O (stereo not drawn) [U-56407] | known to exhibit antibacterial activity | 
 |  |  | CC(C)/C=C/C=C/C=C/C(=O)NC1=C[C@@](O)(/C=C/C=C/C=C/C(=O)NC2=C(O)CCC2=O)C2OC2C1=O (stereo partly drawn) [Manumycin G] | known to exhibit antibacterial activity | 
10 (≈ 20.1 µM) | 5 (≈ 10.1 µM) | 20 (≈ 40.3 µM) | CCCCC(C)/C=C/C(=O)NC1=CC(O)(/C=C/C=C/C=C/C(=O)NC2=C(O)CCC2=O)C2OC2C1=O (stereo not drawn) [EI-1625-2] |  | IC50 (IL-1 β; [4]): 5.4 µM
 |  |  | CCCCC(C)/C=C(C)/C=C/C(=O)NC1=CC(O)(/C=C/C=C/C=C/C(=O)NC2=C(O)CCC2=O)C2OC2C1=O (stereo not drawn) [Manumycin C] | known to exhibit antibacterial activity | 
20 (≈ 40.4 µM) | 20 (≈ 40.4 µM) | 20 (≈ 40.4 µM) | CC(C)C/C=C/C=C/C(=O)NC1=CC(O)(/C=C/C=C/C=C/C(=O)NC2=C(O)CCC2=O)C2OC2C1=O (stereo not drawn) [EI-1511-3] |  | IC50 (IL-1 β; [4]): 5.4 µM; Solubility (Solubility; in acetone): easily soluble; Solubility (Solubility; in dimethyl sulfoxide): easily soluble; Solubility (Solubility; in methanol): soluble

Structure (SMILES) | MIC [1] [µg/mL] | MIC [2] [µg/mL] | MIC [3] [µg/mL] | antibacterial activity (bacteria) | also measured
CCC(C)/C=C/C=C/C=C/C(=O)NC1=CC(O)(/C=C/C=C/C=C/C(=O)NC2=C(O)CCC2=O)C2OC2C1=O (stereo not drawn) [EI-1511-5] | 20 (≈ 38.4 µM) | 20 (≈ 38.4 µM) | 20 (≈ 38.4 µM) |  | IC50 (IL-1 β; THP-1, 4 h): 3.6 µM; Solubility (Solubility; in acetone): easily soluble; Solubility (Solubility; in dimethyl sulfoxide): easily soluble; Solubility (Solubility; in methanol): soluble

— patent US5804599A, “Interleukin-1 production inhibiting compound” (Kyowa Hakko Kogyo Co., Ltd., priority 1994, dated 1998)
